Assay results taken from publication PMC9532478, “A Novel CTLA-4 affinity peptide for cancer immunotherapy by increasing the integrin αvβ3 targeting” (Discover. Oncology, 2022).
Ends that are not written are not given here.

T1: hCTLA-4 protein (Homo sapiens, UniProt P16410)
T1 sequence (P16410 36-223): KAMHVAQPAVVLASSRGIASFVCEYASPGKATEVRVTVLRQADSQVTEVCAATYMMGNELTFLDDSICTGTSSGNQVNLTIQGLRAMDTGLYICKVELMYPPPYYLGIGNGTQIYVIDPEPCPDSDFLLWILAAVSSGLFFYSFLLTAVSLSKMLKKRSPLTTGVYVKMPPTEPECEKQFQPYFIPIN

T2: hCTLA-4 protein (human, UniProt P16410 36-161)
T2 construct: human CTLA-4 protein, soluble recombinant protein; The MST methods speak of a 'Red-NHS647 dye-labelled protein' without naming it; also called human CTLA-4 protein
T2 sequence (looked up): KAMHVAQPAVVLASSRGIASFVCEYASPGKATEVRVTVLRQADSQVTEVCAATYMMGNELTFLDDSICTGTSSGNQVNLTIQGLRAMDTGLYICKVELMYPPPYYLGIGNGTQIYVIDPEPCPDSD

B1: LC4 (peptide)
peptide: WGHSHFSHWKGR
notes: 12-mer selected from the Ph.D.-12 phage display peptide library on hCTLA-4; also called LC4 peptide; source: synthetic peptide (solid phase Fmoc synthesis, RP-HPLC)
B2: LC7 (peptide)
peptide: LDRPSSLAHLAS
notes: 12-mer selected from the Ph.D.-12 phage display peptide library on hCTLA-4; source: synthetic peptide (solid phase Fmoc synthesis, RP-HPLC)
B3: LC8 (peptide)
peptide: RHHSSNPRDTAP
notes: as for B2
B4: LC3 (peptide)
peptide: SWHWHTHVRHQM
notes: as for B2

Tests used:
hCTLA-4 protein [1] = target: T1, hCTLA-4 protein; test: MST affinity of CTLA-4 binding peptides to hCTLA-4 protein; conditions: Monolith NT.115, Red-NHS647 dye-labelled protein, peptides from 400 μmol/L, 16 twofold dilutions, room temperature 5 min
Procedure: The CTLA-4 binding peptides were first diluted to 400 μmol/L with MST buffer, and twofold serial dilutions were carried out to obtain 16 concentration gradients subsequently. Equal Red-NHS647 dye-labelled protein and peptide volumes were incubated at room temperature for 5 min, the mixture was loaded onto standard capillaries (NanoTemper Technologies GmhH), and immediately placed in an MST instrument for detection. The dissociation constant (Kd) was determined using the NanoTemper analysis software MO. Affinity Analysis v2.2.4.

CT26 tumour = test: CT26 tumour-bearing mice, peritumoral LC4; assay type: in vivo
Procedure: BALB/c mice were subcutaneously injected with 2 × 10^5 syngeneic CT26 cells to establish colorectal cancer xenograft model. The mice were divided into control group, LC4 (1 mg / kg) group and LC4 (4 mg / kg) group when the tumor grew to 40–80 mm.^3, peritumoral administration for 14 days. Statistical graph of A tumor volumes and B body weight of LC4 (1 mg / kg) group, LC4 (4 mg / kg) group and control group. Data are expressed as the mean ± SD (n = 5) and statistical significance between groups was determined by Student’s t test: *p < 0.05, ***p < 0.001
Fig. 6 The LC4 activation on T cells was determined in vivo. […] Data are expressed as the mean ± SD (n = 5) and statistical significance between groups was determined by Student’s t test: *p < 0.05, **p < 0.01, ***p < 0.001, ****p < 0.0001; ns = no significance TEXT PRINTED IN THE PICTURE: (A) LC4: Tumor CD3^+CD8^+(%): 6.86 (1mg/kg); Tumor CD3^+CD8^+(%): 19.3 (4mg/kg) | (B) LC4: Spleen CD8^+IFN-γ^+(%): 42.9 (1mg/kg); Spleen CD8^+IFN-γ^+(%): 42.5 (4mg/kg) | (C) LC4: Spleen CD4^+IFN-γ^+(%): 15.6 (1mg/kg); Spleen CD4^+IFN-γ^+(%): 14.2 (4mg/kg) | (D) LC4: DLN CD8^+IFN-γ^+(%): 45.8 (1mg/kg); DLN CD8^+IFN-γ^+(%): 56 (4mg/kg) | (E) LC4: DLN CD4^+IFN-γ^+(%): 2.31 (1mg/kg); DLN CD4^+IFN-γ^+(%): 2.83 (4mg/kg) DOUBTS OF THE COPYIST ABOUT THIS PICTURE: The gate numbers in the flow cytometry plots are printed without a measure or unit. […]

hCTLA-4 protein [2] = target: T2, hCTLA-4 protein; test: MST; Monolith NT.115; peptides first diluted to 400 μmol/L in MST buffer, 16 twofold dilutions; equal volumes of Red-NHS647 dye-labelled protein and peptide, room temperature 5 min, standard capillaries; conditions: both partners purified

| Molecule | Kd (hCTLA-4 protein [1]) [µM] | Kd (hCTLA-4 protein [2]) [µM] | further results |
| --- | --- | --- | --- |
| ASANDNRLRYTY [LC6] | > 200 | – | – |
| HHLRIPYALDQT [LC2] | > 200 | – | – |
| RWKDTAYALTNN [LC1] | > 200 | – | – |
| SHRWQVWSRDRA [LC5] | > 200 | – | – |
| WGHSHFSHWKGR [LC4] | – | – | effect on weight of mice (in words) (CT26 tumour; 1 mg/kg/day or 4 mg/kg/day, peritumoral, 14 days, n = 5): no significant effect on the weight of mice; pathological changes in heart, liver, lung, kidney (H&E staining, in words) (CT26 tumour; mouse, in vivo): No obvious pathological changes |
| B1 | – | 6.86 ± 2.63 | – |
| B2 | – | 2.14 ± 0.69 | – |
| B3 | – | 8.82 ± 0.69 | – |
| B4 | – | 0.04 ± 0.01 | – |
